One experiment deals with IDO1 enzyme (Homo sapiens, UniProt P14902). Put plainly: Determination of biochemical activity of IDO1 enzyme (absorbance at 320 nm). The settings on record: room temperature, 3 hours. The method, then:
(1) Method for Determining Biochemical Activity of IDO1 Enzyme
Firstly, 15 μl of buffer solution of sodium hydrogen phosphate (PH:7-8), 5 μl of reaction buffer solution containing a proper amount of IDO-1 enzyme and heterocyclic urea compound prepared by the invention were added into wells of a microplate, mixed evenly, and reacted at room temperature for 3 hours; then a light absorption value at 320 nm wavelength was detected by using Envision Multilabel Reader of PE company, an inhibition rate of the heterocyclic urea compound on the enzyme reaction was calculated according to an absorption ratio, and an IC50 value of the heterocyclic urea compound was calculated through analysis by GraphPad.

In experiment [1] the target is T1, IDO1 enzyme in the Hela cell (Homo sapiens, UniProt P14902).
T1 construct: endogenous in cells; host or cells: HeLa cells stimulated with interferon γ (100 ng/ml)
T1 sequence (P14902 whole entry): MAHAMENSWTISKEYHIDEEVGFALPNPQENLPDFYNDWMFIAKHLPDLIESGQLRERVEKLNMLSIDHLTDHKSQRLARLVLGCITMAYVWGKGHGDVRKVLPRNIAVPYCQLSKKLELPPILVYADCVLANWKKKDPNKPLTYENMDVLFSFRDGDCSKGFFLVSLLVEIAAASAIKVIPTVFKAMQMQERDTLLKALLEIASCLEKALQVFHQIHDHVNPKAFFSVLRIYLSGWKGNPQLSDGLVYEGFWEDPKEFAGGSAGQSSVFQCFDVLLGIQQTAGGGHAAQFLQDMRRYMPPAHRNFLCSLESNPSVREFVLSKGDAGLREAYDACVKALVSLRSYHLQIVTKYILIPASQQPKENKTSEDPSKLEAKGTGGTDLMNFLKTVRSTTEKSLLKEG
The experiment in a line: Cell activity: interferon γ-stimulated Hela cells, absorbance of supernatant at 480 nm. It is filed as cell-based. The settings on record: interferon γ 100 ng/ml, 72 hours. The protocol: (2) Method for Determining Cell Activity
Hela cells were cultured and passaged in a DMEM medium supplemented with antibiotics in a 37° C. CO2 incubator, inoculated into a 96-well plate for overnight culture, then 1 μl of heterocyclic urea compound with appropriate concentration was added to each well, and then 100 μl of interferon γ (final concentration was 100 ng/ml) was added. After the cells were continuously cultured for 72 hours, 70 μl of cell culture supernatant was added to a 96-well V-bottom plate, 5 μl of trichloroacetic acid (6.1 N) was added to each well, incubated at 50° C. for 30 min, then taken out and centrifuged at […] for 10 min. The above centrifuged supernatant was transferred to a 384-well microplate (20 μl/well), then 20 μl of 2% didimethylaminobenzaldehyde acetic acid solution was added to each well, shaken and mixed evenly, then photometric absorption was performed at 480 nm, and values were measured.

Our source for the IC50 values is patent publication US11014895B2, “Heterocyclic urea compound, and drug composition and application thereof” (CHINA PHARMACEUTICAL UNIVERSITY, priority 2017, dated 2021).

A value given as a limit tells only on which side of the number the result lay.

Sequence of IDO1 enzyme (P14902 whole entry): as above

Usually IC50 stands for the point on the concentration scale where inhibition reaches its midpoint. Lower therefore signals greater potency in that assay. For `O=C(NCCO)Nc1nonc1/C(=N/O)Nc1ccc(F)c(Cl)c1` [Embodiment 28, (Z)-1-(4-(N-(3-chloro-4-fluorophenyl)-N′-hydroxyaminoiminomethyl)-1,2,5-oxadiazole-3-substituted)-3-(23-hydroxyethane)urea], the IC50 (against IDO1 enzyme; in experiment [1]) was below 0.001 µM in each case.

For the compound `CS(=O)(=O)NCCNC(=O)Nc1nonc1/C(=N/O)Nc1ccc(F)c(Cl)c1` [Embodiment 29, (Z)-1-(4-(N-(3-chloro-4-fluorophenyl)-N′-hydroxyaminoiminomethyl)-1,2,5-oxadiazole-3-substituted)-3-(3-methamido-ethyl)urea], the IC50 (on IDO1 enzyme; in experiment [1]) was below 0.001 µM in each case.

`NS(=O)(=O)NCCNC(=O)Nc1nonc1/C(=N/O)Nc1ccc(F)c(Cl)c1` [Embodiment 30]: the concentration for half-maximal inhibition (IC50) (on IDO1 enzyme; in experiment [1]) was below 0.001 µM in each case.

With `O=C(Nc1nonc1/C(=N/O)Nc1ccc(F)c(Br)c1)NC1CCC1` [Embodiment 31, (Z)-1-(4-(N-(3-bromo-4-fluorophenyl)-N′-hydroxyaminoiminomethyl)-1,2,5-oxadiazole-3-substituted)-3-cyclobutylurea], the IC50 (against IDO1 enzyme; in experiment [1]) was 0.1 to 1 µM throughout.

Regarding `O=C(Nc1nonc1/C(=N/O)Nc1ccc(F)c(Br)c1)NC1CC1` [Embodiment 32, (Z)-1-(4-(N-(3-bromo-4-fluorophenyl)-N′-hydroxyaminoiminomethyl)-1,2,5-oxadiazole-3-substituted)-3-cyclopropylurea], the half-maximal inhibitory concentration (IC50) (against IDO1 enzyme; in experiment [1]) was 0.1 to 1 µM throughout.

Consider `O=C(Nc1nonc1/C(=N/O)Nc1ccc(F)c(Br)c1)NC1CCCCCC1` [Embodiment 33, (Z)-1-(4-(N-(3-bromo-4-fluorophenyl)-N′-hydroxyaminoiminomethyl)-1,2,5-oxadiazole-3-substituted)-3-cycloheptylurea], for which the concentration for half-maximal inhibition (IC50) (on IDO1 enzyme; in experiment [1]) was 0.1 to 1 µM in each case.

Consider `O=C(Nc1nonc1/C(=N/O)Nc1ccc(F)c(Br)c1)Nc1cccc2[nH]ccc12` [Embodiment 34, (Z)-1-(4-(N-(3-bromo-4-fluorophenyl)-N′-hydroxyaminoiminomethyl)-1,2,5-oxadiazole-3-substituted)-3-(1H-indole-4-substituted)urea], for which the 50% inhibitory concentration (IC50) (at IDO1 enzyme; in experiment [1]) was 0.1 to 1 µM in each case.

In the case of `O=C(Nc1ccncc1)Nc1nonc1/C(=N/O)Nc1ccc(F)c(Br)c1` [Embodiment 35], the half-inhibitory concentration (IC50) (against IDO1 enzyme; in experiment [1]) was 0.1 to 1 µM each time.

In the case of `O=C(Nc1nonc1/C(=N/O)Nc1ccc(F)c(Br)c1)Nc1cccc2cc[nH]c12` [Embodiment 36, (Z)-1-(4-(N-(3-bromo-4-fluorophenyl)-N′-hydroxyaminoiminomethyl)-1,2,5-oxadiazole-3-substituted)-3-(1H-indole-7-substituted)urea], the IC50 (against IDO1 enzyme; in experiment [1]) was 0.1 to 1 µM throughout.

For `O=C(Nc1nonc1/C(=N/O)Nc1ccc(F)c(Br)c1)Nc1c[nH]c2ccccc12` [Embodiment 37, (Z)-1-(4-(N-(3-bromo-4-fluorophenyl)-N′-hydroxyaminoiminomethyl)-1,2,5-oxadiazole-3-substituted)-3-(1H-indole-3-substituted)urea], the IC50 (against IDO1 enzyme; in experiment [1]) was 0.1 to 1 µM in each case.

For `O=C(Nc1nonc1/C(=N/O)Nc1ccc(F)c(Br)c1)Nc1coc2ccccc12` [Embodiment 38, (Z)-1-(4-(N-(3-bromo-4-fluorophenyl)-N′-hydroxyaminoiminomethyl)-1,2,5-oxadiazole-3-substituted)-3-(benzofuran-3-substituted)urea], the concentration for half-maximal inhibition (IC50) (against IDO1 enzyme; in experiment [1]) was 0.1 to 1 µM each time.

With `O=C(Nc1nonc1/C(=N/O)Nc1ccc(F)c(Br)c1)Nc1csc2ccccc12` [Embodiment 39, (Z)-1-(4-(N-(3-bromo-4-fluorophenyl)-N′-hydroxyaminoiminomethyl)-1,2,5-oxadiazole-3-substituted)-3-(benzothiophene-3-substituted)urea], the half-maximal inhibitory concentration (IC50) (on IDO1 enzyme; in experiment [1]) was 0.1 to 1 µM each time.
